Tests used:
[1] = BEACON 24-hour ABPM / 24-hr urine collection sub-study; format: in vivo, human
Source text: A subset of the BEACON patients consented to additional 24-hour assessments including ambulatory blood pressure monitoring (ABPM) and 24-hour urine collections. An independent Events Adjudication Committee (EAC), blinded to study treatment assignment, evaluated whether renal events, cardiovascular events, and neurological events met the pre-specified definitions of the primary and secondary endpoints. An IDMC, consisting of external clinical experts supported by an independent statistical group, reviewed unblinded safety data throughout the study and made recommendations as appropriate.
A subset of patients consented to additional 24-hr assessments (sub-study) of ambulatory blood pressure monitoring (ABPM) and 24-hr urine collection at selected visits. […] Also of note, reductions in serum magnesium were not associated with renal loss of magnesium.

[2] = BEAM (402-C-0804) phase 2b study, crystalline formulation; format: in vivo, human
[3] = Thorough QT Study in healthy volunteers; format: in vivo, human; conditions: 6 days
Procedure: Intensive blood pressure monitoring was employed in a separate Thorough QT Study, which was conducted in healthy volunteers.

[4] = human, in vivo, po
[5] = Drug-drug interaction study: bardoxolone methyl alone and with itraconazole in healthy volunteers; conditions: for AUC extra %, GM / AUC extra %, Mean / CL/F, GM / CL/F, Mean / λz, GM / λz, Mean / AUC(0-t) / AUC(0-inf) / Cmax / half-life / Vd/F / Tmax: plasma; for AUC(0-t) / AUC(0-inf) / Cmax / half-life / Vd/F / Tmax: human; for AUC(0-t): AUC0-t; for AUC(0-inf): AUC0-∞; for Vd/F: Vz/F
[6] = Crystalline 25 mg QD 52 weeks, N = 57
[7] = Crystalline 75 mg QD 52 weeks, N = 57
[8] = Crystalline 150 mg QD 52 weeks, N = 56
[9] = Period 1: single oral 10 mg bardoxolone methyl alone, fasted, n = 16
[10] = Period 2: single 10 mg bardoxolone methyl with daily 200 mg itraconazole, n = 15
[11] = bardoxolone methyl alone (Period 1)
[12] = oral, 10 mg, Geom. Mean, Bardoxolone Methyl Alone (A), paired analysis n = 15
[13] = oral, GM, Period 2: single 10 mg bardoxolone methyl with daily 200 mg itraconazole, n = 15
[14] = oral, Geom. Mean, Bardoxolone Methyl + Itraconazole (B), paired analysis n = 15
[15] = oral, Mean, Period 2: single 10 mg bardoxolone methyl with daily 200 mg itraconazole, n = 15
[16] = po, 10 mg, GM, Period 1: single oral 10 mg bardoxolone methyl alone, fasted, n = 16
[17] = po, 10 mg, Mean, Period 1: single oral 10 mg bardoxolone methyl alone, fasted, n = 16

SMILES: COC(=O)[C@]12CCC(C)(C)C[C@H]1[C@H]1C(=O)C=C3[C@@]4(C)C=C(C#N)C(=O)C(C)(C)[C@@H]4CC[C@@]3(C)[C@]1(C)CC2 [Bardoxolone methyl, methyl-2-cyano-3,12-dioxooleana-1,9-dien-28-oic acid]
- Urinary Magnesium, WK4 Δ from baseline, mean ([1]; n = 40): −0.9 mmol/24 h
- Urinary Magnesium, WK4, mean ([1]; n = 43): 6.0 mmol/24 h
- Urinary Potassium, WK4 Δ from baseline, mean ([1]; n = 57): −7 mmol/24 h
- Urinary Sodium, WK4 Δ from baseline, mean ([1]; n = 57): −27 mmol/24 h
- Urinary Potassium, WK4, mean ([1]; n = 61): 52 mmol/24 h
- Urinary Sodium, WK4, mean ([1]; n = 61): 140 mmol/24 h
- 24-hour Urine Volume, WK4 Δ from baseline, mean ([1]; n = 63): -247 mL
- 24-hour Urine Volume, WK4, mean ([1]; n = 64): 1792 mL
- Serum Magnesium, WK4, mean ([1]; n = 77): 1.53 mEq/L
- Serum Magnesium, WK4 Δ from baseline, mean ([1]; n = 77): −0.21 mEq/L
- Serum Potassium, WK4 Δ from baseline, mean ([1]; n = 77): 0.10 mmol/L
- Serum Sodium, WK4, mean ([1]; n = 77): 140.3 mmol/L
- Serum Sodium, WK4 Δ from baseline, mean ([1]; n = 77): 0.2 mmol/L
- Serum Potassium, WK4, mean ([1]; n = 77, 20 mg once daily): 4.8 mmol/L
- AE, SOC Card: Cardiac failure congestive, patients n (%) [2, 6]: 2 (4)
- AE, SOC Card: Dyspnoea paroxysmal nocturnal, patients n (%) [2, 6]: 0
- AE, SOC Card: Oedema peripheral, patients n (%) [2, 6]: 4 (7)
- AE, SOC Genrl: Generalised oedema, patients n (%) [2, 6]: 2 (4)
- AE, SOC Genrl: Oedema peripheral, patients n (%) [2, 6]: 11 (19)
- AE, SOC Inv: Ejection fraction decreased, patients n (%) [2, 6]: 1 (2)
- AE, SOC Metab: Fluid overload, patients n (%) [2, 6]: 3 (5)
- AE, SOC Metab: Oedema peripheral, patients n (%) [2, 6]: 3 (5)
- AE, SOC Resp: Dyspnoea exertional, patients n (%) [2, 6]: 1 (2)
- AE, SOC Resp: Dyspnoea, patients n (%) [2, 6]: 2 (4)
- AE, SOC Resp: Orthopnoea, patients n (%) [2, 6]: 0
- AE, SOC Resp: Pulmonary oedema, patients n (%) [2, 6]: 0
- SAE, SOC Card: Cardiac failure congestive, patients n (%) [2, 6]: 2 (4)
- SAE, SOC Genrl: Oedema peripheral, patients n (%) [2, 6]: 0
- SAE, SOC Metab: Fluid overload, patients n (%) [2, 6]: 1 (2)
- SAE, SOC Resp: Dyspnoea, patients n (%) [2, 6]: 0
- SAE, SOC Resp: Pulmonary oedema, patients n (%) [2, 6]: 0
- AE, SOC Card: Cardiac failure congestive, patients n (%) [2, 7]: 3 (5)
- AE, SOC Card: Dyspnoea paroxysmal nocturnal, patients n (%) [2, 7]: 1 (2)
- AE, SOC Card: Oedema peripheral, patients n (%) [2, 7]: 3 (5)
- AE, SOC Genrl: Generalised oedema, patients n (%) [2, 7]: 0
- AE, SOC Genrl: Oedema peripheral, patients n (%) [2, 7]: 10 (18)
- AE, SOC Inv: Ejection fraction decreased, patients n (%) [2, 7]: 0
- AE, SOC Metab: Fluid overload, patients n (%) [2, 7]: 2 (4)
- AE, SOC Metab: Oedema peripheral, patients n (%) [2, 7]: 1 (2)
- AE, SOC Resp: Dyspnoea exertional, patients n (%) [2, 7]: 0
- AE, SOC Resp: Dyspnoea, patients n (%) [2, 7]: 6 (11)
- AE, SOC Resp: Orthopnoea, patients n (%) [2, 7]: 0
- AE, SOC Resp: Pulmonary oedema, patients n (%) [2, 7]: 1 (2)
- SAE, SOC Card: Cardiac failure congestive, patients n (%) [2, 7]: 2 (4)
- SAE, SOC Genrl: Oedema peripheral, patients n (%) [2, 7]: 0
- SAE, SOC Metab: Fluid overload, patients n (%) [2, 7]: 1 (2)
- SAE, SOC Resp: Dyspnoea, patients n (%) [2, 7]: 0
- SAE, SOC Resp: Pulmonary oedema, patients n (%) [2, 7]: 1 (2)
- AE, SOC Card: Cardiac failure congestive, patients n (%) [2, 8]: 3 (5)
- AE, SOC Card: Dyspnoea paroxysmal nocturnal, patients n (%) [2, 8]: 0
- AE, SOC Card: Oedema peripheral, patients n (%) [2, 8]: 4 (7)
- AE, SOC Genrl: Generalised oedema, patients n (%) [2, 8]: 0
- AE, SOC Genrl: Oedema peripheral, patients n (%) [2, 8]: 11 (20)
- AE, SOC Inv: Ejection fraction decreased, patients n (%) [2, 8]: 0
- AE, SOC Metab: Fluid overload, patients n (%) [2, 8]: 0
- AE, SOC Metab: Oedema peripheral, patients n (%) [2, 8]: 3 (5)
- AE, SOC Resp: Dyspnoea exertional, patients n (%) [2, 8]: 3 (5)
- AE, SOC Resp: Dyspnoea, patients n (%) [2, 8]: 4 (7)
- AE, SOC Resp: Orthopnoea, patients n (%) [2, 8]: 0
- AE, SOC Resp: Pulmonary oedema, patients n (%) [2, 8]: 0
- SAE, SOC Card: Cardiac failure congestive, patients n (%) [2, 8]: 2 (4)
- SAE, SOC Genrl: Oedema peripheral, patients n (%) [2, 8]: 1 (2)
- SAE, SOC Metab: Fluid overload, patients n (%) [2, 8]: 0
- SAE, SOC Resp: Dyspnoea, patients n (%) [2, 8]: 0
- SAE, SOC Resp: Pulmonary oedema, patients n (%) [2, 8]: 0
- Blood pressure ([2]; crystalline formulation, titration design): no clear dose-related trend was observed in blood pressure
- Change in blood pressure ([3]; 20 mg or 80 mg once daily): did not differ from changes observed in placebo-treated patients
- QTcF, placebo-corrected changes (ΔΔQTcF) ([3]; 20 or 80 mg): did not increase QTcF
- Dose dependence of systemic exposure [4]: increased linearly with increasing dose from 20 to 60 mg
- Food effect on total systemic exposure [4]: no appreciable food effect
- Increase in peak plasma levels (Cmax) with food [4]: approximately 71%
- Time of peak plasma concentrations after dose administration [4]: 1 to 6 h
- Tolerability of concomitant administration with itraconazole ([5]; 10 mg + itraconazole 200 mg): generally safe and well tolerated
- Clearance (GM CL/F) ([5]; 10 mg single dose + itraconazole 200 mg daily): 41.6 L/h
- Clearance (GM CL/F) ([5]; 10 mg single dose, alone): 359 L/h
- Increase in exposure in the presence of itraconazole ([5]; 10 mg single dose, itraconazole 200 mg daily): > 5 fold
- AUC extra %, GM [5, 9]: 5.81%
- AUC extra %, Mean [5, 9]: 6.10%
- CL/F, GM [5, 9]: 359 L/h
- CL/F, Mean [5, 9]: 402 L/h
- λz, GM [5, 9]: 0.0370 h⁻¹
- λz, Mean [5, 9]: 0.0392 h⁻¹
- AUC extra %, GM [5, 10]: 7.64%
- AUC extra %, Mean [5, 10]: 8.47%
- CL/F, GM [5, 10]: 41.6 L/h
- CL/F, Mean [5, 10]: 42.8 L/h
- λz, GM [5, 10]: 0.0074 h⁻¹
- λz, Mean [5, 10]: 0.00762 h⁻¹
- Subjects with a TEAE, n (%) [5, 11]: 3 (18.8%)
- Subjects with study drug-related TEAEs (diarrhea, nausea, headache), n (%) [5, 11]: 1 (6.3%)
- Subjects with a TEAE, n (%) ([5]; concomitant bardoxolone methyl and itraconazole (Period 2)): 1 (6.7%)
- AUC(0-t) [5, 12]: 25.8 ng·h/mL
- AUC(0-inf) [5, 12]: 27.6 ng·h/mL
- Cmax [5, 12]: 2.41 ng/mL
- half-life ([5]; oral, 10 mg, Mean t1/2, 10 mg single dose, alone): 0.825 days
- AUC(0-t) [5, 13]: 220 ng·h/mL
- AUC(0-t) [5, 14]: 220 ng·h/mL
- AUC(0-t) [5, 15]: 226 ng·h/mL
- AUC(0-inf) [5, 13]: 241 ng·h/mL
- AUC(0-inf) [5, 14]: 241 ng·h/mL
- AUC(0-inf) [5, 15]: 248 ng·h/mL
- Cmax [5, 13]: 16.6 ng/mL
- Cmax [5, 14]: 16.6 ng/mL
- Cmax [5, 15]: 17.3 ng/mL
- half-life ([5]; oral, Mean t1/2, 10 mg single dose + itraconazole 200 mg daily): 4 days
- Vd/F [5, 13]: 5620 L
- Vd/F [5, 15]: 5900 L
- Tmax [5, 15]: 3.1 h
- Tmax ([5]; oral, Median, Period 2: single 10 mg bardoxolone methyl with daily 200 mg itraconazole, n = 15): 3 h
- half-life ([5]; oral, t½, Mean, Period 2: single 10 mg bardoxolone methyl with daily 200 mg itraconazole, n = 15): 4 days
- half-life ([5]; oral, t½, Median, Period 2: single 10 mg bardoxolone methyl with daily 200 mg itraconazole, n = 15): 4.07 days
- AUC(0-t) [5, 16]: 26.1 ng·h/mL
- AUC(0-t) [5, 17]: 29.3 ng·h/mL
- AUC(0-inf) [5, 16]: 27.8 ng·h/mL
- AUC(0-inf) [5, 17]: 31 ng·h/mL
- Cmax [5, 16]: 2.43 ng/mL
- Cmax [5, 17]: 2.58 ng/mL
- Vd/F [5, 16]: 9700 L
- Vd/F [5, 17]: 10200 L
- Tmax [5, 17]: 2.9 h
- Tmax ([5]; po, 10 mg, Median, Period 1: single oral 10 mg bardoxolone methyl alone, fasted, n = 16): 2.5 h
- half-life ([5]; po, 10 mg, t½, Mean, Period 1: single oral 10 mg bardoxolone methyl alone, fasted, n = 16): 0.825 days
- half-life ([5]; po, 10 mg, t½, Median, Period 1: single oral 10 mg bardoxolone methyl alone, fasted, n = 16): 0.846 days
- Changes in laboratory parameters ([5]; whole study): no clinically relevant mean or individual changes in laboratory parameters
- Deaths, SAEs, adverse events leading to discontinuation ([5]; whole study): No subjects died, had an SAE, or had an adverse event that led to discontinuation of study drug

Source: patent US20240293351A1, “METHODS OF ADMINISTERING SYNTHETIC TRITERPENOIDS” (REATA PHARMACEUTICALS HOLDINGS, LLC, priority 2020, published 2024)
